Assay results from patent US9440964B2, “Pesticidal compositions and processes related thereto” (Dow AgroSciences LLC, priority 2011, dated 2016).

Experiments:
BAW (Spodoptera exigua) = experiment: Bioassay on Beet Armyworm (BAW), 128-well diet tray; assay type: in vivo; settings: percent mortality, second instar larvae, five to seven days; for pest or weed control at 50 µg/cm2: Spodoptera exigua, 168 h, 50 μg/cm^2 on diet, read-out: Rating BAW
Description: (§1) Certain molecules disclosed in this document were tested against BAW and CEW using procedures described in the following examples. In the reporting of the results, the “BAW & CEW Rating Table” was used (See Table Section).
Bioassays on BAW (Spodoptera exigua)
(§2) Trays were covered with a clear self-adhesive cover and held at 25° C., 14:10 light-dark for five to seven days. Percent mortality was recorded for the larvae in each well; activity in the eight wells was then averaged. The results are indicated in the table entitled “Table ABC: Biological Results” (See Table Section).

CEW (Helicoverpa zea) = experiment: Bioassay on Corn Earworm (CEW), 128-well diet tray; assay type: in vivo; settings: percent mortality, second instar larvae, five to seven days; for pest or weed control at 50 µg/cm2 / pest or weed control at 0.5 µg/cm2: Helicoverpa zea, 168 h; for pest or weed control at 50 µg/cm2: 50 μg/cm^2 on diet, read-out: Rating CEW; for pest or weed control at 0.5 µg/cm2: 0.5 μg/cm^2 on diet, read-out: Rating CEW (*Tested at 0.5 μg/cm^2)
Description: as §1
Bioassays on CEW (Helicoverpa zea)
as §2

Structure (SMILES) | pest or weed control at 50 µg/cm2 (BAW (Spodoptera exigua)) [%] | pest or weed control at 50 µg/cm2 (CEW (Helicoverpa zea)) [%] | Rating BAW (**Tested at 12.5 μg/cm^2) (BAW (Spodoptera exigua); 12.5 μg/cm^2 on diet) | Rating CEW (**Tested at 12.5 μg/cm^2) (CEW (Helicoverpa zea); 12.5 μg/cm^2 on diet) | pest or weed control at 0.5 µg/cm2 (CEW (Helicoverpa zea)) [%]
CC(C)c1ccccc1N1C(=O)CS/C1=C\C(=O)Nc1ccc(-c2ncn(-c3ccc(OC(F)(F)F)cc3)n2)cc1 [Molecule A24, (Z)-2-(3-(2-isopropylphenyl)-4-oxothiazolidin-2-ylidene)-N-(4-(1-(4-(trifluoromethoxy)phenyl)-1H-1,2,4-triazol-3-yl)phenyl)acetamide] | 50 to 100 | 50 to 100 | – | – | –
Cc1ccccc1N/C(S)=C(\C#N)C(=O)Nc1ccc(-c2ncn(-c3ccc(OC(F)(F)F)cc3)n2)cc1 [Molecule A29, (Z)-2-Cyano-3-mercapto-3-(o-tolylamino)-N-(4-(1-(4-(trifluoromethoxy)phenyl)-1H-1,2,4-triazol-3-yl)phenyl)acrylamide] | 0 to 50 | 50 to 100 | – | – | –
CC(C)c1ccccc1N1C(=O)CS/C1=C(/C#N)C(=O)Nc1ccc(-c2ncn(-c3ccc(OC(F)(F)F)cc3)n2)cc1 [Molecule A31, (Z)-2-Cyano-2-(3-(2-isopropylphenyl)-4-oxothiazolidin-2-ylidene)-N-(4-(1-(4-(trifluoromethoxy)phenyl)-1H-1,2,4-triazol-3-yl)phenyl)acetamide] | 50 to 100 | 50 to 100 | – | – | –
Cc1cccc(C)c1N/C(O)=C/C(=O)Nc1ccc(-c2ncn(-c3ccc(OC(F)(F)F)cc3)n2)cc1 [Molecule A32, (Z)-3-(2,6-dimethylphenylamino)-3-hydroxy-I-(4-(1-(4-(trifluoromethoxy)phenyl)-1H-1,2,4-triazol-3-yl)phenyl)acrylamide] | 50 to 100 | 50 to 100 | – | – | –
Cc1cc(C)c(N2C(=O)CS/C2=N\C(=O)Nc2ccc(-c3ncn(-c4ccc(OC(F)(F)F)cc4)n3)cc2)c(C)c1 [Molecule A36] | 50 to 100 | 50 to 100 | – | – | –
Cc1cc(C)c(N2C(=O)C(C)S/C2=N\C(=O)Nc2ccc(-c3ncn(-c4ccc(OC(F)(F)F)cc4)n3)cc2)c(C)c1 (centres unmarked) [Molecule A37] | 50 to 100 | 50 to 100 | – | – | –
CCC1CS/C(=N\C(=O)Nc2ccc(-c3ncn(-c4ccc(OC(F)(F)F)cc4)n3)cc2)N1c1c(C)cc(C)cc1C (centres unmarked) [Molecule A38] | 50 to 100 | 50 to 100 | – | – | –
Cc1cccc(C)c1N1CC(C)CS/C1=N\C(=O)Nc1ccc(-c2ncn(-c3ccc(OC(F)(F)F)cc3)n2)cc1 (centres unmarked) [Molecule A39] | 50 to 100 | 50 to 100 | – | – | –
Cc1cc(C)c(N2/C(=N/C(=O)Nc3ccc(-c4ncn(-c5ccc(OC(F)(F)F)cc5)n4)cc3)SCC2C)c(C)c1 (centres unmarked) [Molecule A40] | – | – | A** (50-100) | A** (50-100) | –
Cc1cc(C)c(N2CC(C)CS/C2=N\C(=O)Nc2ccc(-c3ncn(-c4ccc(OC(F)(F)F)cc4)n3)cc2)c(C)c1 (centres unmarked) [Molecule A41] | 50 to 100 | 50 to 100 | – | – | –
CC(C)c1ccccc1N/C(S)=N/C(=O)Nc1ccc(-c2ncn(-c3ccc(OC(F)(F)F)cc3)n2)cc1 [Molecule A48] | 50 to 100 | 50 to 100 | – | – | –
Cc1cc(C)c(N/C(S)=N/C(=O)Nc2ccc(-c3ncn(-c4ccc(OC(F)(F)F)cc4)n3)cc2)c(C)c1 [Molecule A49] | 50 to 100 | 50 to 100 | – | – | –
COc1cc(C)c(N/C(S)=N/C(=O)Nc2ccc(-c3ncn(-c4ccc(OC(F)(F)F)cc4)n3)cc2)c(C)c1 [Molecule A50] | 50 to 100 | 50 to 100 | – | – | –
Cc1ccccc1NC(=O)NC(=O)Nc1ccc(-c2ncn(-c3ccc(OC(F)(F)F)cc3)n2)cc1 [Molecule A51] | 50 to 100 | 50 to 100 | – | – | –
CCc1ccccc1NC(=O)NC(=O)Nc1ccc(-c2ncn(-c3ccc(OC(F)(F)F)cc3)n2)cc1 [Molecule A52] | 50 to 100 | 50 to 100 | – | – | –
CCC(C)c1ccccc1N/C(=N\C(=O)Nc1ccc(-c2ncn(-c3ccc(OC(F)(F)F)cc3)n2)cc1)SCOC(=O)C(C)C (centres unmarked) [Molecule A54] | 50 to 100 | 50 to 100 | – | – | –
CCc1cccc(C)c1N/C(=N\C(=O)Nc1ccc(-c2ncn(-c3ccc(OC(F)(F)F)cc3)n2)cc1)SCOC(=O)C(C)C [Molecule A55] | 50 to 100 | 50 to 100 | – | – | –
COc1ccc(NC(NC(=O)Nc2ccc(-c3ncn(-c4ccc(OC(F)(F)F)cc4)n3)cc2)SCOC(=O)C(C)C)c(C)c1 (centres unmarked) [Molecule A56] | 50 to 100 | 50 to 100 | – | – | –
CCc1ccccc1N/C(=N\C(=O)Nc1ccc(-c2ncn(-c3ccc(OC(F)(F)F)cc3)n2)cc1)SCOC(=O)C(C)C [Molecule A57] | 50 to 100 | 50 to 100 | – | – | –

Structure (SMILES) | pest or weed control at 50 µg/cm2 (BAW (Spodoptera exigua)) [%] | pest or weed control at 50 µg/cm2 (CEW (Helicoverpa zea)) [%] | Rating BAW (**Tested at 12.5 μg/cm^2) (BAW (Spodoptera exigua); 12.5 μg/cm^2 on diet) | Rating CEW (**Tested at 12.5 μg/cm^2) (CEW (Helicoverpa zea); 12.5 μg/cm^2 on diet) | pest or weed control at 0.5 µg/cm2 (CEW (Helicoverpa zea)) [%]
CC(C)C(=O)OCS/C(=N/C(=O)Nc1ccc(-c2ncn(-c3ccc(OC(F)(F)F)cc3)n2)cc1)Nc1c(Cl)cccc1Cl [Molecule A58] | 50 to 100 | 50 to 100 | – | – | –
Cc1cc(C)c(N/C(=N\C(=O)Nc2ccc(-c3ncn(-c4ccc(OC(F)(F)F)cc4)n3)cc2)SCOC(=O)C(C)C)c(C)c1 [Molecule A59] | 50 to 100 | 50 to 100 | – | – | –
Cc1ccccc1N/C(=N\C(=O)Nc1ccc(-c2ncn(-c3ccc(OC(F)(F)F)cc3)n2)cc1)SCOC(=O)C(C)C [Molecule A60] | 50 to 100 | 50 to 100 | – | – | –
CC(C)C(=O)OCS/C(=N/C(=O)Nc1ccc(-c2ncn(-c3ccc(OC(F)(F)F)cc3)n2)cc1)Nc1c(F)cccc1F [Molecule A61] | 50 to 100 | 50 to 100 | – | – | –
O=C(/N=C(\S)Nc1ccccc1C1CC1)Nc1ccc(-c2ncn(-c3ccc(OC(F)(F)F)cc3)n2)cc1 [Molecule A63] | 50 to 100 | – | – | – | 50 to 100
CCCc1ccccc1N/C(S)=N/C(=O)Nc1ccc(-c2ncn(-c3ccc(OC(F)(F)F)cc3)n2)cc1 [Molecule A64] | 50 to 100 | – | – | – | 50 to 100
CC(C)(C)c1ccccc1N/C(S)=N/C(=O)Nc1ccc(-c2ncn(-c3ccc(OC(F)(F)F)cc3)n2)cc1 [Molecule A67] | 50 to 100 | – | – | – | 50 to 100
Cc1ccc(N/C(S)=N/C(=O)Nc2ccc(-c3ncn(-c4ccc(OC(F)(F)F)cc4)n3)cc2)c(C)c1 [Molecule A68] | 50 to 100 | – | – | – | 50 to 100
Cc1cccc(Cl)c1N/C(S)=N/C(=O)Nc1ccc(-c2ncn(-c3ccc(OC(F)(F)F)cc3)n2)cc1 [Molecule A70] | 50 to 100 | – | – | – | 50 to 100
Cc1ccc(Cl)cc1N/C(S)=N/C(=O)Nc1ccc(-c2ncn(-c3ccc(OC(F)(F)F)cc3)n2)cc1 [Molecule A72] | 50 to 100 | – | – | – | 50 to 100
Cc1ccc(N/C(S)=N/C(=O)Nc2ccc(-c3ncn(-c4ccc(OC(F)(F)F)cc4)n3)cc2)c(Cl)c1 [Molecule A73] | 50 to 100 | – | – | – | 50 to 100
Cc1cccc(Cl)c1N1C(=O)CS/C1=N\C(=O)Nc1ccc(-c2ncn(-c3ccc(OC(F)(F)F)cc3)n2)cc1 [Molecule A74] | 50 to 100 | – | – | – | 50 to 100
Cc1cccc(N2C(=O)CS/C2=N\C(=O)Nc2ccc(-c3ncn(-c4ccc(OC(F)(F)F)cc4)n3)cc2)c1C [Molecule A75] | 50 to 100 | – | – | – | 50 to 100
Cc1ccc(Cl)cc1N1C(=O)CS/C1=N\C(=O)Nc1ccc(-c2ncn(-c3ccc(OC(F)(F)F)cc3)n2)cc1 [Molecule A76] | 50 to 100 | – | – | – | 50 to 100
Cc1c(F)cccc1N/C(S)=N/C(=O)Nc1ccc(-c2ncn(-c3ccc(OC(F)(F)F)cc3)n2)cc1 [Molecule A79] | 50 to 100 | – | – | – | 50 to 100
CC(C)c1cccc(Cl)c1N/C(S)=N/C(=O)Nc1ccc(-c2ncn(-c3ccc(OC(F)(F)F)cc3)n2)cc1 [Molecule A81] | 50 to 100 | 50 to 100 | – | – | –
CC(C)c1ccc(F)cc1N/C(S)=N/C(=O)Nc1ccc(-c2ncn(-c3ccc(OC(F)(F)F)cc3)n2)cc1 [Molecule A82] | 50 to 100 | – | – | – | 50 to 100
Cc1ccc(N/C(S)=N/C(=O)Nc2ccc(-c3ncn(-c4ccc(OC(F)(F)F)cc4)n3)cc2)c(C(C)C)c1 [Molecule A84] | 50 to 100 | – | – | – | 50 to 100
